Entries after “also recorded” stand apart in the source; their conditions may differ.
Legend:
[1] = system: LPS-induced lung fibrosis; assay: LPS-induced lung fibrosis / acute lung injury; format: in vivo, mouse
Method: Animals, sciatic nerve crush, and induction of lung fibrosis p75NTR−/− mice (Lee et al., 1992) and tPA−/− mice (Carmeliet et al., 1994) were in C57B1/6 background and purchased from The Jackson Laboratory. Double p75NTR−/−tPA−/− mice were generated by crossing p75NTR−/− mice with tPA−/− mice. C57B1/6J mice were used as controls. Sciatic nerve crush was performed as described previously (Akassoglou et al., 2000). Lung fibrosis was induced as described previously (Chen et al., 2004). For the rolipram treatments, mice were administered 5 mg/kg rolipram (Calbiochem) before the LPS injection as described previously (Miotla et al., 1998). Mice were killed 4.5 h after LPS or saline administration. For rolipram treatment after sciatic nerve injury, mice were injected with rolipram (1 mg/kg) once daily for 8 d until tissue was harvested and processed for immunostaining. Immunohistochemistry was performed as described in Akassoglou et al. (2002). Primary antibodies were sheep anti-human fibrin(ogen) (1:200; US Biologicals), rabbit anti-human tPA ( 1/300; Molecular Innovations), rabbit anti-p75NTR clone 9651, (1:1,000), goat anti-p75NTR ( 1/200; Santa Cruz Biotechnology, Inc.), rabbit anti-mouse PAI-1 (1:500; a gift from David Loskutoff, Scripps Research Institute, La Jolla, Calif.), and mouse anti-S100 (1:200; Neomarkers). For immunofluorescence, secondary antibodies were anti-rabbit FITC and anti-goat Cy3 (1:200; Jackson Immunochemicals). Images were acquired with an Axioplan II epifluorescence microscope (Carl Zeiss Microlmaging, Inc.) using dry Plan-Neofluar lenses using 10×0.3 NA, 20×0.5 NA, or 40×0.75 NA objectives equipped with Axiocam HRc digital camera and the Axiovision image analysis system. Immunoblot was performed as described previously (Akassoglou et al., 2002). Antibodies used were rabbit anti-p75NTR clones 9992 and 9651 (1:5,000), mouse anti-fibrin (1:500; Accurate Chemical & Scientific Corp.), rabbit anti-myosin (1:1,000; Sigma-Aldrich), rabbit anti-GAPDH (1:5,000; Abcam) and rabbit anti-PAI-1 (1:5,000; a gift of David Loskutoff). Quantification was performed on the Scion NIH Imaging Software. Fibrin precipitation and quantification from lung tissues was performed exactly as described previously (Ling et al., 2004). RT-PCR was performed as described previously (Akassoglou et al., 2002). Primers for tPA, uPA, and PAI-1 genes were used as described previously (Yamamoto and Loskutoff, 1996). Real-time PCR was performed using the Opticon DNA Engine 2 (MJ Research) and the Quantitect SYBR Green PCR kit (QIAGEN). Results were analyzed with Opticon 2 software using the comparative Ct method as described previously (Livak and Schmittgen, 2001). Data were expressed as ΔΔCt for the tPA gene normalized against GAPDH.

CGNs = assay: Intracellular cAMP in cerebellar granule neurons; format: cell-based, mouse
Description: Murine SCs were isolated as described previously (Syroid et al., 2000). NIH3T3 or HEK293 cells were cotransfected either with p75NTR FL, ICD or deletion constructs, and PDE4A5 cDNAs using Lipofectamine 2000 (Invitrogen) as described in the Results section. CGNs were isolated from P10 animals (Yamashita and Tohyama, 2003). CGNs were lysed immediately for co-IP, without plating. siRNA directed against p75NTR (Dharmacon; SMART Pool reagent, Cat. M-080041-00; Cat. M-009340) was transfected into SCs and NIH3T3p75NTR cells using Dharmafect (Dharmacon).
(§1) […] fibroblasts or 500,000 SCs were lysed in 0.1 N HCl solution and cAMP was measured using a competitive binding cAMP ELISA (Assay Designs). Cells were treated with 100 ng/ml PTX for 16 h. […] Cells were treated with forskolin in the presence of the inhibitors for 1 h. […] For the qualitative and quantitative PKA assay (Promega), cells were treated with 10 μM forskolin for 30 min, lysed in 1% NP-40 buffer with 150 mM NaCl, 50 mM Tris, and 1 mM EGTA, and protein concentration was determined using the Bradford Assay (Bio-Rad Laboratories). 1 μg was loaded into the PKA assay reaction mix according to the manufacturer's protocol (Promega).

spinal cord injury = settings: Nikulina et al., 2004, Pearse et al.; cited from earlier work
[2] = system: sciatic nerve crush injury; assay: Sciatic nerve crush injury; format: in vivo, mouse; settings: wt nerves 8 days after crush; rolipram 1 mg/kg once daily for 8 d
Method: Animals, sciatic nerve crush, and induction of lung fibrosis p75NTR−/− mice (Lee et al., 1992) and tPA−/− mice (Carmeliet et al., 1994) were in C57B1/6 background and purchased from The Jackson Laboratory. Double p75NTR−/−tPA−/− mice were generated by crossing p75NTR−/− mice with tPA−/− mice. C57B1/6J mice were used as controls. Sciatic nerve crush was performed as described previously (Akassoglou et al., 2000). Lung fibrosis was induced as described previously (Chen et al., 2004). For the rolipram treatments, mice were administered 5 mg/kg rolipram (Calbiochem) before the LPS injection as described previously (Miotla et al., 1998). Mice were killed 4.5 h after LPS or saline administration. For rolipram treatment after sciatic nerve injury, mice were injected with rolipram (1 mg/kg) once daily for 8 d until tissue was harvested and processed for immunostaining. Immunohistochemistry was performed as described in Akassoglou et al. (2002). Primary antibodies were sheep anti-human fibrin(ogen) (1:200; US Biologicals), rabbit anti-human tPA ( 1/300; Molecular Innovations), rabbit anti-p75NTR clone 9651, (1:1,000), goat anti-p75NTR ( 1/200; Santa Cruz Biotechnology, Inc.), rabbit anti-mouse PAI-1 (1:500; a gift from David Loskutoff, Scripps Research Institute, La Jolla, Calif.), and mouse anti-S100 (1:200; Neomarkers). […]

NIH3T3p75NTR cells [3] = assay: Quantification of tPA activity; format: cell-based; settings: 10 μM forskolin 16 h; 200 nM KT5720; IBMX; rolipram
Method: Quantification of tPA and uPA activity in SC and fibroblast in lysates and supernatants was performed according to the directions of the activity assay kits from American Diagnostica and Chemicon, respectively. To elevate cAMP cells were treated either with 2 mM db-cAMP (Sigma-Aldrich) or with 10 μM forskolin (Sigma-Aldrich) for 16 h. To block PKA activity, cells were treated with 200 nM KT5720 (Calbiochem).

PDE4 = settings: cited from earlier work
NIH3T3p75NTR cells [4] = assay: Competitive binding cAMP ELISA; format: cell-based; settings: 16 h; PTX 100 ng/ml, IBMX 500 μM, PDE1 inh. 18.7 μM, EHNA 80 μM, trequinsin 100 nM, rolipram 10 μM, PDE5 inh. 23 μM
Method: as §1

Primary CGNs = assay: Myelin inhibition of neurite outgrowth; format: cell-based, mouse; settings: 24 hrs, myelin 1 μg/well, poly-D-lysine

Compound | fibrin deposition in the lung ([1]; 5 mg/kg rolipram before LPS, vs LPS alone) | decrease in fibrin, rolipram vs. control treated wt lungs ([1]; 5 mg/kg rolipram before LPS, killed 4.5 h after LPS) [%] | PAI-1 in the lung after LPS (quantitative PCR of transcripts) ([1]; LPS + rolipram) | PAI-1 transcripts in the lung, rolipram treatment alone ([1]; no LPS) | intracellular cAMP in p75NTR−/− CGNs (CGNs; p75NTR−/− cells) | intracellular cAMP in wild-type CGNs (CGNs; wild-type cells) | axonal regeneration and functional recovery (spinal cord injury) | fibrin deposition in the sciatic nerve [2] | tPA activity in NIH3T3p75NTR cells (NIH3T3p75NTR cells [3]) | PDE4 isoform selectivity (PDE4; background statement) | IC50 (PDE4) [nM] | intracellular cAMP levels in NIH3T3p75NTR cells (NIH3T3p75NTR cells [4]) | myelin inhibition of neurite outgrowth (Primary CGNs)
COc1ccc(C2CNC(=O)C2)cc1OC1CCCC1 (stereo not shown) [rolipram] | decreased in the lung; also recorded: reduces fibrin deposition; also recorded: decreases fibrin deposition | 34 | reduction of LPS-induced PAI-1 upregulation; also recorded: decreases PAI-1 | no effect | no significant increase | four-fold increase in intracellular cAMP | […] | decreased levels of fibrin deposition; also recorded: statistically significant reduction of fibrin deposition; also recorded: reduces fibrin deposition; also recorded: decreases fibrin deposition | increase of tPA levels | […] | […] | increase intracellular levels of cAMP; also recorded: increase levels of cAMP in NIH3T3p75NTR cells to the levels of NIH3T3 cells; also recorded: significantly increases cAMP levels | –
YGRKKRRQRRRSPLDSQASPGLVLHAGATTSQRRES (listed as Homo sapiens) [peptide 25] | – | – | – | – | – | – | – | – | – | – | – | – | did not overcome myelin inhibition of neurite outgrowth
